# From ChEMBL document CHEMBL5465560, “Selectivity Literature for EUbOPEN Chemogenomic Library” (2024)
# Key:
# [1] = molecular target: T1, Protein kinase C epsilon type (Homo sapiens) (UniProt Q02156); settings: at 10 µM
# T1 sequence (whole entry): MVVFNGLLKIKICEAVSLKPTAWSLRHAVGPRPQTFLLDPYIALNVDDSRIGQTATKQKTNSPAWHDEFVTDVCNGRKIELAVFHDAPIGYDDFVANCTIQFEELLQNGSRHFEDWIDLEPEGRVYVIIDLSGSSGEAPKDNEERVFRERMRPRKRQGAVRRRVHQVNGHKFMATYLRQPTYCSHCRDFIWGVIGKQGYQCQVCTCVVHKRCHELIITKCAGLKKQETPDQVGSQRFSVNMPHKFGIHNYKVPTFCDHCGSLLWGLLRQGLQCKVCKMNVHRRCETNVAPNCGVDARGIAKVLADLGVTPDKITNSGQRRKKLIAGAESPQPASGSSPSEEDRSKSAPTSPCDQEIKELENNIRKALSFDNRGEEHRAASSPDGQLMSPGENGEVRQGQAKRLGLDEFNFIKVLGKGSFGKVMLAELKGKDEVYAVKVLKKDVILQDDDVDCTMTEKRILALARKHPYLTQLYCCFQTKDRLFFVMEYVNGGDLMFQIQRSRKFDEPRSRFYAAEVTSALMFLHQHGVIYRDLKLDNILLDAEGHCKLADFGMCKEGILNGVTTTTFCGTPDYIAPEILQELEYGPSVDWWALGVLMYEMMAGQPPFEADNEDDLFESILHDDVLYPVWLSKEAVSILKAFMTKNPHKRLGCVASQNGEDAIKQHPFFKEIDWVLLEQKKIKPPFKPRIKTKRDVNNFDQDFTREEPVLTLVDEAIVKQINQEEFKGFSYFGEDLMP
# [2] = molecular target: Tyrosine-protein kinase BTK (Homo sapiens, UniProt Q06187); settings: at 1 µM
# Tyrosine-protein kinase BTK, sequence (Q06187 whole entry): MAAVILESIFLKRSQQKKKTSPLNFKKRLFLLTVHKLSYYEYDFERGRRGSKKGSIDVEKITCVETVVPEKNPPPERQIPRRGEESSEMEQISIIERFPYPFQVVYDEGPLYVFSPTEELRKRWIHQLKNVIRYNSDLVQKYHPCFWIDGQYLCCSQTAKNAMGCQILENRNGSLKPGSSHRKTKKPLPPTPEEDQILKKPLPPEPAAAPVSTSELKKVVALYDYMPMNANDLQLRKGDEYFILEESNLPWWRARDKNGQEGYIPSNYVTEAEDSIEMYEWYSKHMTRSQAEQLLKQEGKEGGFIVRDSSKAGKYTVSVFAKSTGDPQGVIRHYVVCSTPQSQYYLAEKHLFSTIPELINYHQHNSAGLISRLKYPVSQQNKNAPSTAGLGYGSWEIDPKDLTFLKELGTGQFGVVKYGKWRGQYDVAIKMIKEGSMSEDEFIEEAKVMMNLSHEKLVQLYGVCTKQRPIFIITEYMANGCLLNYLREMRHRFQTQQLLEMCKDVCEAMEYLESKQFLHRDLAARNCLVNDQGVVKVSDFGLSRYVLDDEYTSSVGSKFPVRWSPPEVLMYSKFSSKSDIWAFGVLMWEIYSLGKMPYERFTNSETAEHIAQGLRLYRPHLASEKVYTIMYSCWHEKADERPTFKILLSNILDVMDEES
# [3] = molecular target: Dual specificity tyrosine-phosphorylation-regulated kinase 1B (Homo sapiens, UniProt Q9Y463); test: Selectivity interaction (Kinase panel (Z-LYTE Assay)) EUB0001632a DYRK1B; settings: at 10 µM
# Dual specificity tyrosine-phosphorylation-regulated kinase 1B, sequence (Q9Y463 whole entry, looked up): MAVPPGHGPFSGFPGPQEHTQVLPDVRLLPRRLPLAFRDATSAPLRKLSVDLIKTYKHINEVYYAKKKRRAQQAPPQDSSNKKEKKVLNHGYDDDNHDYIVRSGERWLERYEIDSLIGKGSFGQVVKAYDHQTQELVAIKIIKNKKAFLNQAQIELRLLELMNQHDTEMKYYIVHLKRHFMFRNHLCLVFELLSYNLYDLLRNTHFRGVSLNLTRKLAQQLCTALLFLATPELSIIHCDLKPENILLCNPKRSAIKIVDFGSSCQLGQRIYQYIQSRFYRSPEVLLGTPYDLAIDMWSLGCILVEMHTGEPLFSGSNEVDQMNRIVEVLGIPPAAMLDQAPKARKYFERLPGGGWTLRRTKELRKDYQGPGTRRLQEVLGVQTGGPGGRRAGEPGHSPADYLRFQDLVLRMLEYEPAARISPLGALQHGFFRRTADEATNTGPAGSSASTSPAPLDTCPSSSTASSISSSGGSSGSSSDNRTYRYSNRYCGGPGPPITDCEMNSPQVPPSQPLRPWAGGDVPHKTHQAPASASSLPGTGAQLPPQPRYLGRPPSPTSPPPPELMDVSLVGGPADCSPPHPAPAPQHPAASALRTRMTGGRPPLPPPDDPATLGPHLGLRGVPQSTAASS
# [4] = molecular target: T2, Dual specificity mitogen-activated protein kinase kinase 6 (Homo sapiens) (UniProt P52564); test: Selectivity interaction (ActivX KiNativ screen (kinase selectivity in THP-1 cell lysates)) EUB0000639a MAP2K6; format: subcellular; settings: lysate, at 5 µM
# T2 sequence (whole entry): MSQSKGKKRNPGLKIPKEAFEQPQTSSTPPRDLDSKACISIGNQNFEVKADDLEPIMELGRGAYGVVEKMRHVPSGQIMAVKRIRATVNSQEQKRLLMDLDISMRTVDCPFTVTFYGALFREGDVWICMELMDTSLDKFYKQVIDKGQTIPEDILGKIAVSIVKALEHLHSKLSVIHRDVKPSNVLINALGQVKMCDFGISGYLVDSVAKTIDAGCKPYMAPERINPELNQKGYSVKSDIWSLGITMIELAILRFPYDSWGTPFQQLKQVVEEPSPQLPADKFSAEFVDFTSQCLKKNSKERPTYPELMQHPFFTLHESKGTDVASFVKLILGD
# [5] = molecular target: Ribosomal protein S6 kinase alpha-3 (Homo sapiens, UniProt P51812); test: Selectivity interaction (ActivX KiNativ screen (kinase selectivity in THP-1 cell lysates)) EUB0000639a RPS6KA3; format: subcellular; settings: lysate, at 1 µM
# Ribosomal protein S6 kinase alpha-3, sequence (P51812 whole entry): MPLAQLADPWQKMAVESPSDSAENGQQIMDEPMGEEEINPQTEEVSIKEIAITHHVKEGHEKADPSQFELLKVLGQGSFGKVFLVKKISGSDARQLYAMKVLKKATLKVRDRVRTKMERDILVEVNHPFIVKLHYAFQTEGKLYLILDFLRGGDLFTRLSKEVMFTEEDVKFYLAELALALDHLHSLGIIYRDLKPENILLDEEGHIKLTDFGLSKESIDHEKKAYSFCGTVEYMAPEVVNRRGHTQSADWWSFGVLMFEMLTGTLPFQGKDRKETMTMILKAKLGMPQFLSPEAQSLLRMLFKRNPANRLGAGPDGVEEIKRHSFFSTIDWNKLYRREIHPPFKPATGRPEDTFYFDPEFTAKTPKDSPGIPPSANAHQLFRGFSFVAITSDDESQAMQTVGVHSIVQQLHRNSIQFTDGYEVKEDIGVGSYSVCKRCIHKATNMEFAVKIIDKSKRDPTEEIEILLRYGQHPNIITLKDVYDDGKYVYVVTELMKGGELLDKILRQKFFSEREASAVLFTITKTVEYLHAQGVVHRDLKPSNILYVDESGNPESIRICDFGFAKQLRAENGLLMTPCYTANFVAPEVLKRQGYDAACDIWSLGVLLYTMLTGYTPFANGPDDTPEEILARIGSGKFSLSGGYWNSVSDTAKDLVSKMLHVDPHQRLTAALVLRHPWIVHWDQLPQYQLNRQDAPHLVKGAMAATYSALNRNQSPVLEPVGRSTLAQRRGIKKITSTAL
# [6] = molecular target: T3, Ephrin type-B receptor 6 (Homo sapiens) (UniProt O15197); test: Selectivity interaction (KinomeScan (DiscoverX)) EUB0000607a EPHB6; settings: at 10 µM
# T3 sequence (whole entry): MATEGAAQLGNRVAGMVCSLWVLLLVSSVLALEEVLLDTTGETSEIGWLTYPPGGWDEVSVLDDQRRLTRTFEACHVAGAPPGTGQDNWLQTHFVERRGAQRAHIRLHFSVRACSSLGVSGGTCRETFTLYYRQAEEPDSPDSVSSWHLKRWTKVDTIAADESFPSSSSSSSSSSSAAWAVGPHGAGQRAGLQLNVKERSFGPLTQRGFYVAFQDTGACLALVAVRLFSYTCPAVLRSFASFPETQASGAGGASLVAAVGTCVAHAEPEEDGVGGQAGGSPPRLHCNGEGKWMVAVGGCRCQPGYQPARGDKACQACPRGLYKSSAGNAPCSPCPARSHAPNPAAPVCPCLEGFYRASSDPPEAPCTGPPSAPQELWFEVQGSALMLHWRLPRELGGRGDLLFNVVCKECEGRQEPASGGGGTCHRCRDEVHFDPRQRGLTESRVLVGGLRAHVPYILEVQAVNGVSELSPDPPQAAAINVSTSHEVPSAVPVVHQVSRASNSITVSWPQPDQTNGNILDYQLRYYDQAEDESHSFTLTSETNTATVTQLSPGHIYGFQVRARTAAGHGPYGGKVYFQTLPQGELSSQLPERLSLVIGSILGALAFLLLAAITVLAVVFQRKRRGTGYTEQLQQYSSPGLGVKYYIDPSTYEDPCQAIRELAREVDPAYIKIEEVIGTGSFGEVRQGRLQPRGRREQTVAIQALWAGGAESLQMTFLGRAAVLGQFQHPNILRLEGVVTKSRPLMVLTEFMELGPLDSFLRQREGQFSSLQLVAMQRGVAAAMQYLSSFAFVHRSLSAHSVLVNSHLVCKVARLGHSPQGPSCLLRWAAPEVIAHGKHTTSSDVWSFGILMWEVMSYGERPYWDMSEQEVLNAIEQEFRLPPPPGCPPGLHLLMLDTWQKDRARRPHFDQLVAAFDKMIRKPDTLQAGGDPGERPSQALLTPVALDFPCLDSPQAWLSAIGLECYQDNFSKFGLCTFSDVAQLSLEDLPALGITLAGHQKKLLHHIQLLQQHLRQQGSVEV
# Mu-type opioid receptor = Mu-type opioid receptor (Homo sapiens, UniProt P35372); test: Selectivity interaction (Panel of non-epigenetic targets (kinases, GPCRs, ion channels, and transporters, Eurofins) ) EUB0000271b OPRM1; settings: at 1 µM
# Mu-type opioid receptor, sequence (P35372 whole entry): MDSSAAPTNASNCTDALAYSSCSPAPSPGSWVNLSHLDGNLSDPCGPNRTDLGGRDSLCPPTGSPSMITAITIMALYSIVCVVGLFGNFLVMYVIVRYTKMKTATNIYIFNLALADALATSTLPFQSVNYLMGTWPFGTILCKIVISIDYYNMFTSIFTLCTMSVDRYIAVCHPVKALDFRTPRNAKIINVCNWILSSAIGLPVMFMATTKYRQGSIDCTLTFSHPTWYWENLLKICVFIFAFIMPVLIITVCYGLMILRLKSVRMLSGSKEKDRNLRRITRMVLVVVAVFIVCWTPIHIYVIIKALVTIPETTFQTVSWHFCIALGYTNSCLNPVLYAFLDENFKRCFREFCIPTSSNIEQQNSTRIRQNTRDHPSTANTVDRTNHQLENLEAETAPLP
smiles,measurement,setting,value
CCN(CC)CCCCNc1ncc2cc(-c3cc(OC)cc(OC)c3)c(NC(=O)NC(C)(C)C)nc2n1,% of control,[1],100%
Cc1cc(-c2ccnc(Nc3cnn(C)c3)n2)ccc1CNC(=O)N1CC(OC(C)C)C1,% of control,[2],2.9%
Cn1cc(-n2cnc3c(NCc4nc5cc(Cl)c(Cl)cc5[nH]4)nc(N4CCOCC4)nc32)cn1,% of control,[3],3.54%
CC[C@@H]1[C@H](F)C(=O)N[C@@H]1COc1nccc2cc(C(N)=O)c(OC)cc12 [ZIMLOVISERTIB],% of inhibition,[4],55.8%
same,% of inhibition,[5],6.6%
CNC(=O)Nc1ccc(-c2nc(N3CC4CCC(C3)O4)c3cnn(C4CCC5(CC4)OCCO5)c3n2)cc1,% of control,[6],83%
Cc1cc(C)cc([C@@H]2c3cc(C)ccc3NC(=O)CN2C(=O)c2ccc(Br)s2)c1,% of inhibition,Mu-type opioid receptor,4%
